Results reported in patent US20250353873A1, “COMPOUNDS AND METHODS FOR MODULATING APOE EXPRESSION” (Ionis Pharmaceuticals, Inc., priority 2024, published 2025).
“And” between values parts separate entries of the source, which are not always exact repeats. Identical values can stand only once. Strand notation (5' to 3'): a small letter for the sugar, then the base; units joined by * are phosphorothioate-linked, units joined directly phosphodiester-linked; [ ] holds rarer units or linkages, { } end groups; capitals alone tell only the bases. [ms] = mesyl phosphoramidate linkage; e = 2'-O-(2-methoxyethyl) (MOE); k = constrained ethyl (cEt); [5mC] = 5-methylcytosine; d = 2'-deoxy (DNA)

Legend:
human APOE RNA [1] = experiment: Dose-dependent reduction of human APOE RNA in HepG2 cells, electroporation, 20,000 cells per well, average of GAPDH- and PPIA-normalized results (Example 4, Table 12); type: cell-based; details: HepG2, 20,000 cells per well
Method: HepG2 cells plated at a density of 20,000 cells per well were treated by electroporation with various concentrations of modified oligonucleotide as specified in the tables below. […] APOE RNA levels were measured using the human primer probe set RTS3073 (described herein above). APOE RNA levels were normalized to human GAPDH, and human PPIA. Human GAPDH was amplified using human primer probe set RTS104 (described herein above). Human PPIA was amplified using human primer probe set mk_cycloA_2nd (described herein above) The average of the GAPDH-normalized results and the PPIA-normalized results are presented in the table below as percent APOE RNA, relative to the amount of APOE RNA in untreated control cells (% UTC). The half maximal inhibitory concentration (IC50) of each modified oligonucleotide was calculated in GraphPad Prism 10 (GraphPad Software, San Diego, CA) and is also presented in the table below.

human APOE RNA [2] = experiment: Activity in APOE C57BL/6NTac-Apoeem7250 knock-in mice, single ICV bolus, 8 weeks (Example 11); type: in vivo
Procedure, shortened: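 Cortical and spinal cord human APOE RNA quantified by RT-qPCR 8 weeks after a single 300 μg ICV dose in knock-in mice, Ppia-normalized. Values are percent of levels in PBS-treated animals.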

human APOE RNA [3] = experiment: Activity in APOE C57BL/6NTac-Apoeem7250 knock-in mice, single ICV bolus, 4 weeks (Example 10); type: in vivo; details: single ICV bolus 300 μg, 4 weeks post treatment, normalized to mouse Ppia
Procedure, shortened: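 Human APOE RNA, quantified by real-time RT-PCR with RTS3073 and normalized to mouse Ppia, was read in cortical brain and spinal cord 4 weeks post dosing. Dosing was a single ICV bolus of 300 μg per knock-in mouse; values are % of PBS-treated animals.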

human APOE RNA [4] = experiment: Potency (dose response, ED50) in APOE C57BL/6NTac-Apoeem7250 knock-in mice, 4 weeks (Example 14); type: in vivo
Method: Modified oligonucleotides described above were tested in the APOE C57BL/6NTac-Apoeem7250 knock-in mouse model described above.
APOE C57BL/6NTac-Apoeem7250 knock-in mice were divided into groups of 3-4 mice each. A group of 3-4 mice received a single ICV bolus with PBS as a negative control.
Four weeks post treatment, mice were sacrificed, and RNA was extracted from cortical brain tissue and spinal cord for quantitative real-time RT-PCR analysis of RNA expression of […] using human primer probe set RTS3073 (described herein above). APOE RNA levels were normalized to mouse Ppia. Mouse Ppia was amplified using primer probe set m_cyclo24 (described herein above). Results are presented as percent human APOE RNA relative to the amount of APOE RNA in PBS treated animals, (% control). N.C. indicates values that were not calculated. Each experiment is identified in separate tables below.
The half maximal effective dose (ED50) of each modified oligonucleotide was calculated using GraphPad Prism 10 software (GraphPad Software, San Diego, CA).

human APOE RNA [5] = experiment: Dose-dependent inhibition of human APOE RNA in differentiated SH-SY5Y cells, free uptake, 5 days (Example 5); type: cell-based
Procedure, shortened: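 APOE RNA, measured by RTS3073 primer probe set and normalized to human PPIA, is reported as % of untreated control cells, with IC50 fitted. Cells were differentiated SH-SY5Y at 10,000/well, given modified oligonucleotide at several concentrations by free uptake for 5 days.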

With “Aes^mCeoTeoTesGesGksTdsGdzAdzAdzTds^mCdsTdsTdsTdsAdzTksTksAesAe (eA*e[5mC]eTeT*eG*kG*dT*dG[ms]dA[ms]dA[ms]dT*d[5mC]*dT*dT*dT*dA[ms]kT*kT*eA*eA) [Compound No. 1757576]” as the substance, how does the “APOE RNA (% UTC)” value (human APOE RNA [1]; 5 nM) read?
Its value is 94 % UTC.

And the “APOE RNA (% UTC)” value (human APOE RNA [1]; 13 nM)?
Its value is 88 % UTC.

What about the “APOE RNA (% UTC)” value (human APOE RNA [1]; 33 nM) of the same substance?
The value was 83 % UTC.

What about the “APOE RNA (% UTC)” value (human APOE RNA [1]; 82 nM) of the same substance?
Its value is 77 % UTC.

And the “APOE RNA (% UTC)” value (human APOE RNA [1]; 205 nM)?
Its value is 61 % UTC.

And the “APOE RNA (% UTC)” value (human APOE RNA [1]; 512 nM)?
The value was 40 % UTC.

What about the “APOE RNA (% UTC)” value (human APOE RNA [1]; 1,280 nM) of the same substance?
The value was 29 % UTC.

And the “APOE RNA (% UTC)” value (human APOE RNA [1]; 3,200 nM)?
Its value is 22 % UTC.

What about the “APOE RNA (% UTC)” value (human APOE RNA [1]; 8,000 nM) of the same substance?
Its value is 11 % UTC.

What about the “APOE RNA (% UTC)” value (human APOE RNA [1]; 20,000 nM) of the same substance?
The value was 6 % UTC.

What about the IC50 (human APOE RNA [1]; approximately 24 hours) of the same substance?
Its IC50 is 370 nM.

What about the “reduction of human APOE RNA in the cortex” value (human APOE RNA [2]; APOE knock-in mouse model, 8 weeks post administration, assay of Example 11) of the same substance?
Its value is 79%.

And the “APOE RNA (% control) Cortex” value (human APOE RNA [2]; cortex, single ICV bolus 300 μg, 8 weeks post treatment, normalized to mouse Ppia)?
Its value is 29 % control and 21 % control.

And the “APOE RNA (% control) Spinal Cord” value (human APOE RNA [2]; spinal cord, single ICV bolus 300 μg, 8 weeks post treatment, normalized to mouse Ppia)?
The value was 15 % control and 10 % control.

What about the “APOE RNA (% control) Cortex” value (human APOE RNA [3]; cortex) of the same substance?
Its value is 29 % control.

What about the “APOE RNA (% control) Spinal Cord” value (human APOE RNA [3]; spinal cord) of the same substance?
The value was 23 % control.

And the “APOE RNA (% control) Cortex” value (human APOE RNA [4]; cortex, ICV dose 10 μg)?
The value was 108 % control.

What about the “APOE RNA (% control) Cortex” value (human APOE RNA [4]; cortex, ICV dose 30 μg) of the same substance?
Its value is 121 % control.

What about the “APOE RNA (% control) Cortex” value (human APOE RNA [4]; cortex, ICV dose 100 μg) of the same substance?
The value was 63 % control.

And the “APOE RNA (% control) Cortex” value (human APOE RNA [4]; cortex, ICV dose 300 μg)?
The value was 37 % control.

And the “APOE RNA (% control) Cortex” value (human APOE RNA [4]; cortex, ICV dose 700 μg)?
Its value is 31 % control.

And the “ED 50 (μg) Cortex” value (human APOE RNA [4]; cortex, single ICV bolus, GraphPad Prism 10)?
Its value is 235.5 µg.

What about the “APOE RNA (% control) Spinal Cord” value (human APOE RNA [4]; spinal cord, ICV dose 10 μg) of the same substance?
The value was 58 % control.

And the “APOE RNA (% control) Spinal Cord” value (human APOE RNA [4]; spinal cord, ICV dose 30 μg)?
Its value is 55 % control.

What about the “APOE RNA (% control) Spinal Cord” value (human APOE RNA [4]; spinal cord, ICV dose 100 μg) of the same substance?
Its value is 23 % control.

What about the “APOE RNA (% control) Spinal Cord” value (human APOE RNA [4]; spinal cord, ICV dose 300 μg) of the same substance?
Its value is 20 % control.

And the “APOE RNA (% control) Spinal Cord” value (human APOE RNA [4]; spinal cord, ICV dose 700 μg)?
The value was 18 % control.

And the “ED 50 (μg) Spinal Cord” value (human APOE RNA [4]; spinal cord, single ICV bolus, GraphPad Prism 10)?
The value was 23.0 µg.

What about the “APOE RNA (% UTC)” value (human APOE RNA [5]; 5 nM, 5 days (Table 13)) of the same substance?
Its value is 75 % UTC.

And the “APOE RNA (% UTC)” value (human APOE RNA [5]; 5 nM, 5 days (Table 14))?
Its value is 68 % UTC.

And the “APOE RNA (% UTC)” value (human APOE RNA [5]; 13 nM, 5 days (Table 13))?
Its value is 71 % UTC.

What about the “APOE RNA (% UTC)” value (human APOE RNA [5]; 13 nM, 5 days (Table 14)) of the same substance?
Its value is 51 % UTC.

And the “APOE RNA (% UTC)” value (human APOE RNA [5]; 33 nM, 5 days (Table 13))?
The value was 45 % UTC.

And the “APOE RNA (% UTC)” value (human APOE RNA [5]; 33 nM, 5 days (Table 14))?
Its value is 44 % UTC.

What about the “APOE RNA (% UTC)” value (human APOE RNA [5]; 82 nM, 5 days (Table 13)) of the same substance?
Its value is 42 % UTC.

What about the “APOE RNA (% UTC)” value (human APOE RNA [5]; 82 nM, 5 days (Table 14)) of the same substance?
Its value is 35 % UTC.

What about the “APOE RNA (% UTC)” value (human APOE RNA [5]; 205 nM, 5 days (Table 13)) of the same substance?
Its value is 43 % UTC.

And the “APOE RNA (% UTC)” value (human APOE RNA [5]; 205 nM, 5 days (Table 14))?
Its value is 32 % UTC.

And the “APOE RNA (% UTC)” value (human APOE RNA [5]; 512 nM, 5 days (Table 13))?
The value was 31 % UTC.

What about the “APOE RNA (% UTC)” value (human APOE RNA [5]; 512 nM, 5 days (Table 14)) of the same substance?
Its value is 32 % UTC.

And the “APOE RNA (% UTC)” value (human APOE RNA [5]; 1,280 nM, 5 days (Table 13))?
The value was 29 % UTC.

And the “APOE RNA (% UTC)” value (human APOE RNA [5]; 1,280 nM, 5 days (Table 14))?
The value was 27 % UTC.

And the “APOE RNA (% UTC)” value (human APOE RNA [5]; 3,200 nM, 5 days (Table 13))?
Its value is 27 % UTC.

What about the “APOE RNA (% UTC)” value (human APOE RNA [5]; 3,200 nM, 5 days (Table 14)) of the same substance?
Its value is 23 % UTC.

And the “APOE RNA (% UTC)” value (human APOE RNA [5]; 8,000 nM, 5 days (Table 13))?
The value was 12 % UTC.

What about the “APOE RNA (% UTC)” value (human APOE RNA [5]; 8,000 nM, 5 days (Table 14)) of the same substance?
Its value is 17 % UTC.

And the “APOE RNA (% UTC)” value (human APOE RNA [5]; 20,000 nM, 5 days (Table 13))?
The value was 18 % UTC.

What about the “APOE RNA (% UTC)” value (human APOE RNA [5]; 20,000 nM, 5 days (Table 14)) of the same substance?
Its value is 6 % UTC.

What about the IC50 (human APOE RNA [5]; 5 days (Table 13)) of the same substance?
The IC50 was 70 nM.

And the IC50 (human APOE RNA [5]; 5 days (Table 14))?
Its IC50 is 20 nM.
